Experimental data: the NIST ThermoML archive (doi:10.1016/j.jct.2009.09.003)
“And” between values parts separate entries of the source, which are not always exact repeats. Identical values can stand only once.

Settings: Liquid, Transpiration

NCCNCCNCCN [1,2-ethanediamine, N,N'-bis(2-aminoethyl)-]
Settings | vapor or sublimation pressure
338.2 K | 0.00866 kPa
340.7 K | 0.01059 kPa
343.5 K | 0.0135 kPa
346.3 K | 0.01645 kPa
347.2 K | 0.01792 kPa
348.2 K | 0.01944 kPa
349.4 K | 0.0209 kPa
350.1 K | 0.022 kPa
350.2 K | 0.02259 kPa
352.4 K | 0.02695 kPa
353.2 K | 0.02857 kPa
355.2 K | 0.03317 kPa
355.4 K | 0.03445 kPa
356.2 K | 0.03575 kPa
358.5 K | 0.04226 kPa
359.2 K | 0.04519 kPa
361.2 K | 0.05252 kPa
363.2 K | 0.05873 kPa
364.2 K | 0.0654 kPa
365.4 K | 0.06908 kPa
367.4 K | 0.07992 kPa
368.1 K | 0.08563 kPa and 0.08484 kPa
370.2 K | 0.09747 kPa
370.4 K | 0.09756 kPa
371 K | 0.1008 kPa
373.3 K | 0.1176 kPa

CN1CCN(C)CC1 [1,4-dimethylpiperazine]
Settings | vapor or sublimation pressure [kPa]
268.1 K | 0.2307
270.3 K | 0.2719
274.1 K | 0.3511
274.8 K | 0.3656
278.5 K | 0.486
280.1 K | 0.5177
283.6 K | 0.6602
286.1 K | 0.7611
288.5 K | 0.8272
291.1 K | 0.9973
293.6 K | 1.116
296.1 K | 1.359
298.5 K | 1.561
301.1 K | 1.834
303.4 K | 2.102
306.1 K | 2.518
308.5 K | 2.6
311.1 K | 3.202

CN1CCN(CCN)CC1 [1-(2-aminoethyl)-4-methyl-piperazine]
Settings | vapor or sublimation pressure
297.8 K | 0.0246 kPa
298.8 K | 0.0265 kPa
302 K | 0.0341 kPa
302.7 K | 0.0368 kPa
304.6 K | 0.0433 kPa
307.2 K | 0.0548 kPa and 0.0538 kPa
310.5 K | 0.0691 kPa
311.6 K | 0.0765 kPa
313.2 K | 0.085 kPa
314.3 K | 0.0925 kPa
315.9 K | 0.1026 kPa
317.1 K | 0.1153 kPa
320.2 K | 0.1434 kPa
323.7 K | 0.1872 kPa
327.7 K | 0.2497 kPa
331.8 K | 0.3218 kPa

NCCN1CCNCC1 [N-(β-aminoethyl)piperazine)]
Settings | vapor or sublimation pressure
295.7 K | 0.0064 kPa
297.7 K | 0.0079 kPa
300.4 K | 0.0096 kPa
303.3 K | 0.0127 kPa and 0.0131 kPa
304.7 K | 0.0144 kPa
305.6 K | 0.015 kPa
308.2 K | 0.0193 kPa
310.2 K | 0.0227 kPa
312.6 K | 0.028 kPa
314.6 K | 0.0333 kPa
317.5 K | 0.0414 kPa
320.7 K | 0.0534 kPa
323.1 K | 0.0653 kPa
326.4 K | 0.0835 kPa
328.2 K | 0.0943 kPa
330.5 K | 0.1135 kPa
330.7 K | 0.1203 kPa
333.1 K | 0.1411 kPa
333.2 K | 0.134 kPa
335.2 K | 0.1628 kPa
338.1 K | 0.1943 kPa
